The record followed here is US20040082503A1, “Methods for treatment of diabetes using peptide analogues of insulin” (Neurocrine Biosciences, Inc., priority 1998, published 2004).

Values joined by “and” are separate entries in the source; they are usually repeats but may differ in a detail not shown here. Identical values can stand only once. Bounds are passed on as bounds.

The test system of assay [1] is Insulin specific NOD T cell clone PD12-2.40. As to the kind of experiment: Proliferation of insulin-specific NOD T cell clone PD12-2.40. In kind it is cell-based, mouse (NOD). To be noted: for S.I. (Stimulation Index): clone PD12-2.40, 50 μM peptide, cpm with peptide/cpm in medium alone, Exp. 1 and 2. As for the experimental part:
(§1) Insulin specific NOD T cell lines were established by culturing lymphocytes isolated from islet-infiltrating populations by in vitro stimulation with either porcine insulin at 25 μg/ml and irradiated NOD islet cell in the presence of irradiated NOD spleen cells as antigen presenting cells and cytokines. To obtain the infiltrating lymphocytes the following procedures were performed (see Wegmann et al., Eur. J. Immunol. 24:1853, 1994): the pancreas from the NOD mouse was digested with collagenase and individual islets were isolated manually. The infiltrating lymphocytes were then obtained by mild trypsin digestion of the islets. The insulin specific T cell lines or clones were propagated by serial stimulation in the presence of NOD spleen cells, porcine insulin and lymphokines. Clones were obtained by limiting dilution of the B chain (9-23) specific T cell lines in the presence of the antigen presenting cells and porcine insulin at 25 μg/ml. Wells with a growing population of cells following limiting dilution were expanded in appropriate medium, and after one cycle of growth were tested for reactivity to the B chain (9-23) peptide of insulin by evaluating the proliferative response.
(§2) Insulin B chain (9-23) (SEQ ID NO:2) specific mouse (NOD) T cell clones were isolated from infiltrated islets as described in Example 2. Peptide analogues with single alanine substitutions were prepared as described in Example 1. The effect of each analogue on T cell proliferation was then evaluated using an assay performed in 96-well flat bottom microtiter plates (see Daniel et al., Eur. J. Immunol. 25:1056, 1995). Briefly 25,000 T cell clones along with 1 million irradiated NOD spleen cells were cultured in the presence of 50 μg/ml of insulin B chain 9-23 peptide or any of the alanine substituted peptides listed below in triplicate sets. The plates were incubated for a total of 72 hours in 7% carbon dioxide atmosphere with a pulse of 1 μCi/well of tritiated thymidine for the last 6-8 hours of culture. Cells were harvested on a glass fiber filter and the associated radioactivity was counted in a liquid scintillation counter. Results are expressed as mean counts per minute of triplicate wells.
(§3) NOD T cell clones were incubated in the presence of 50 μM of either the native B chain (9-23) peptide or NBI-6024. The data in Table 3 represent the mean of triplicate sample±standard error of the mean. Within Table 3, S.I. (Stimulation Index)=proliferation (cpm) in the presence of the peptide/proliferation (cpm) in medium alone.

Assay [2] relates to Murine NOD T cell clone PD12-2.40 response to insulin B chain (9-23) peptide. Description: Antagonism of T cell proliferation assay, clone PD12-2.40. The assay is classed as cell-based, mouse (NOD). To be noted: for % Inhibition: N/A = no inhibition observed. The procedure:
Peptide analogues of B chain (9-23) containing alanine substitutions at residue 12, 13, 15 or 16 or the doubly substituted peptide at positions 16 and 19 (A^16,19; NBI-6024) were prepared as described in Example 1. T cell antagonism was detected by evaluating the ability of the peptide analogues to inhibit T cell proliferation induced by native B chain (9-23) (SEQ ID NO:2). In this assay, antigen presenting cells were first irradiated and then incubated with the competing peptide analogue and the native B chain (9-23) peptide. T cells were then added to the culture. Various concentrations of candidate peptide analogues were included in cultures which were incubated for a total of 4 days. Following this incubation period, each culture was pulsed with 1 μCi of [^3H]-thymidine for an additional 12-18 hours. Cultures were then harvested on fiberglass filters and counted as above. Mean CPM and standard error of the mean were calculated from data determined in triplicate cultures.
Within Table 4, the control peptide, NBI-5096, is an unrelated peptide from myelin basic protein. The percent inhibition was calculated as: (1−experimental cpm/insulin peptide cpm)×100%.

Assay [3] has as its system Soluble NBI-6024 induced T cells (IL-2, IL-4, IL-5 production). As to the kind of experiment: Cytokine production by NBI-6024 induced T cells (ELISA). In kind it is cell-based, NOD mouse. To be noted: for Cytokine IL-2: 48 h supernatant. The procedure: FIG. 18 is a histogram, showing a comparison of the cytokines produced by immune cells induced by A^16,19 (NBI-6024) peptide in the presence or absence of adjuvant. Groups of NOD mice were immunized with the NBI-6024 alone or emulsified with CFA. The cytokines IL-2 and IL-4, as indicated, were measured at 25 μM of NBI-6024 and expressed as pg/mL after subtracting the background values.
To determine the type of T cells produced following soluble administration of NBI-6024, the culture supernatants from immune lymphoid cells were removed 48 hours following the initiation of culture and the levels of various cytokines measured using standard ELISA technology. […] Within Table 8, values are expressed in pg/ml as mean of triplicates±SEM.
In general terms: In an ELISA, binding on a coated surface is turned into a signal by an enzyme label.

Assay [4] relates to Insulin B chain (9-23) specific mouse (NOD) T cell clones. As to the kind of experiment: Proliferation of insulin-specific NOD T cell clones (summary over clones). The assay is classed as cell-based. The note with it: four NOD derived T cell clones; 50 μM peptide. As for the experimental part: as §1, §2, §3
In assay [5] the test system is DQ8 antigens. As to the kind of experiment: Binding to DQ8 antigens.
In assay [6] the test system is Insulin specific NOD T cell clone PD12-4.29. Description: Proliferation of insulin-specific NOD T cell clone PD12-4.29. The assay is classed as cell-based, mouse (NOD). The note with it: 50 μg/ml peptide, 72 h, 3H-thymidine; no antigen 789 cpm. As for the experimental part:
as §1, §2

In assay [7] the test system is Insulin specific NOD T cell clone PD12-4.4. As to the kind of experiment: Proliferation of insulin-specific NOD T cell clone PD12-4.4. In kind it is cell-based, mouse (NOD). The note with it: 50 μg/ml peptide, 72 h, 3H-thymidine; no antigen 350 cpm. The procedure: as §1, §2
In assay [8] the test system is Insulin specific NOD T cell clone PD12-4.34. As to the kind of experiment: Proliferation of insulin-specific NOD T cell clone PD12-4.34. To be noted: 50 μg/ml peptide, 72 h, 3H-thymidine; no antigen 231 cpm. The assay is classed as cell-based, mouse (NOD). As for the experimental part: as §1, §2
Assay [9] deals with Insulin specific NOD T cell clone PD6-4.3. Description: Proliferation of insulin-specific NOD T cell clone PD6-4.3. The note with it: 50 μg/ml peptide, 72 h, 3H-thymidine; no antigen 163 cpm. The assay is classed as cell-based, mouse (NOD). As for the experimental part:
as §1, §2

Where [10] appears, read: B(9-23) 5 μM + 10 μM competing peptide.
Where [11] appears, read: B(9-23) 5 μM + 50 μM competing peptide.
Setting [12] is: soluble NBI-6024 induced T cells cultured with NBI-6024 5 μM.
The mark [13] stands for this setting: soluble NBI-6024 induced T cells cultured with NBI-6024 25 μM.

One may read the % Inhibition as the relative decrease from the control value, in per cent. Turning to “NBI-6024: insulin B chain 9-23 with alanine substitutions at positions 16 and 19 (SHLVEALALVAGERG)”, the “S.I. (Stimulation Index)” value in assay [1] was 1.01 and 1.16. In addition, the “CPM ± SEM” value in assay [2] (setting [10]) is reported as 6,379 ± 1,485 CPM; in assay [2] (setting [11]), 4,305 ± 941 CPM. The “% Inhibition” value in assay [2] (setting [10]) came out at 30.0%; in assay [2] (setting [11]) it was 52.9%. For the same substance, the Cytokine production profile entry in [3] (NBI-6024 emulsified with CFA (control)) was “did induce the expected Th1-cytokine profile (IL-2)”; in assay [3] (T cells from mice immunized with soluble NBI-6024), “produced the Th2 cytokines, interleukin-4 (FIG. 18) and interleukin-5 (Table 8), and not the Th1-derived interleukin-2”. In addition, the “Cytokine IL-4” value in assay [3] (soluble NBI-6024 induced T cells cultured with NBI-6024 1 μM, 0: 134 ± 0) is 684 ± 92 pg/mL; in assay [3] (setting [12]) it was 1,653 ± 51 pg/ml; in assay [3] (setting [13]), 2,102 ± 85 pg/ml. Moreover, the “Cytokine IL-5” value in assay [3] (soluble NBI-6024 induced T cells cultured with NBI-6024 1 μM, 0: 1,814 ± 332) is 9,999 ± 503 pg/ml; in [3] (setting [12]), 23,496 ± 684 pg/ml; in assay [3] (setting [13]), 28,062 ± 141 pg/ml. Moreover, the “Cytokine IL-2” value in [3] (soluble NBI-6024 induced T cells cultured with NBI-6024 1 μM), in [3] (setting [12]) and in assay [3] (setting [13]) was under 15 pg/mL in each case. Also, the “Proliferative response over medium only (background)” value in [4] was “little or no proliferation over medium only (background)”. Further, the “Binding affinity to DQ8 antigens” value in [5] is recorded as “binds with similar affinity”.

Take “Native 9-23: native peptide, residues 9-23 of human insulin B chain (SEQ ID NO:2) (SHLVEALYLVCGERG; Residues 9-23 of human insulin B chain; listed as Homo sapiens) [reference compound]”: the “Response (cpm) of T cell clone PD12-4.29” value in [6] was found to be 14820 cpm. Also, the “Response (cpm) of T cell clone PD12-4.4” value in assay [7] amounted to 10000 cpm. Besides, the “Response (cpm) of T cell clone PD12-2.40” value in assay [1] (50 μg/ml peptide, 72 h, 3H-thymidine, no antigen 682 cpm) was 32221 cpm. In addition, the “S.I. (Stimulation Index)” value in assay [1] (listed as Insulin B Chain (9-23)) is 96.16 and 98.4. Further, in assay [8], the “Response (cpm) of T cell clone PD12-4.34” value is given as 3614 cpm. In addition, the “CPM ± SEM” value in assay [2] (B(9-23) 5 μM alone, medium only 305 ± 13) was 9,149 ± 1,062 CPM. In addition, the “Proliferative response over medium only (background)” value in assay [4] was “significant response”. Further, the “Response (cpm) of T cell clone PD6-4.3” value in assay [9] came out at 10463 cpm.
